Drawing on patent publication US10577362B2, “Substituted 2, 4-diamino-quinoline derivatives for use in the treatment of proliferative diseases” (GENOSCIENCE PHARMA, priority 2016, dated 2020), this text covers viability and EC50 for eight compounds.

Test [1] deals with PANC-1 (prancreatic carcinoma) cell line. In words: CellTiter-Glo luminescent cell viability assay, PANC-1. Format: cell-based. The following applies: Homo sapiens; for viability at 4 µM: PANC-1, 4 μM; for viability at 4 µM / viability at 10 µM: 72 h, % of signal of diluent-treated cultures; for viability at 10 µM: PANC-1, 10 μM; for EC50: PANC-1 cell line, 72 h incubation, CellTiter-Glo, read-out: EC50 (growth inhibition assay of PANC-1 cell line). The gist of the method:
(§1)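 In a 72 h viability assay, compound-treated cells were compared against matched H2O or DMSO diluent controls by luminescence, points in at least duplicate.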

Test [2] relates to A375 (malignant melanoma) cell line. The experiment in a line: CellTiter-Glo luminescent cell viability assay, A375. The following applies: Homo sapiens, A-375; for viability at 4 µM: A375, compound at 4 μM; for viability at 4 µM / viability at 10 µM: 72 h; for viability at 10 µM: A375, compound at 10 μM; for EC50: A375 cell line, 72 h incubation, CellTiter-Glo, read-out: EC50, growth inhibition of A375. Type of test: cell-based, human. The gist of the method: (§2)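 Cells were cultured at 37 °C, 5% CO2 with 10% FBS; adherent lines were plated overnight, suspension MOLM-14 plated 1 h before dosing. Compounds in H2O or DMSO were added at various concentrations for 72 h, and viability was read by luminescence. EC50 is the dose reducing signal to 50% of diluent control.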
On the technique in general: In ATP-based viability assays light output follows the ATP content of the culture.

The subject of test [3] is MOLM-14 (acute myeloid leukemia) cell line. In words: CellTiter-Glo luminescent cell viability assay, MOLM-14. Type of test: cell-based, human. The note with it: Homo sapiens; for viability at 4 µM: MOLM-14, compound at 4 μM; for viability at 4 µM / viability at 10 µM: 72 h; for viability at 10 µM: MOLM-14, compound at 10 μM; for EC50: MOLM-14 cell line, 72 h incubation, CellTiter-Glo, read-out: EC50, growth inhibition of MOLM-14. The gist of the method: as §1

For test [4], the system named is Huh7 (hepatocellular carcinoma) cell line. In words: CellTiter-Glo luminescent cell viability assay, Huh7. Type of test: cell-based, human. The following applies: Homo sapiens, Huh-7; for viability at 4 µM: Huh7, compound at 4 μM; for viability at 4 µM / viability at 10 µM: 72 h; for viability at 10 µM: Huh7, compound at 10 μM; for EC50: Huh7 cell line, 72 h incubation, CellTiter-Glo, read-out: EC50, growth inhibition of Huh7. The gist of the method:
as §1

In test [5] the test system is 786-O (renal adenocarcinoma) cell line. In words: CellTiter-Glo luminescent cell viability assay, 786-O. Type of test: cell-based, human. The following applies: Homo sapiens, 786-0; for viability at 4 µM / viability at 10 µM: 786-O, 72 h; for viability at 4 µM: compound at 4 μM; for viability at 10 µM: compound at 10 μM; for EC50: 786-O cell line, 72 h incubation, CellTiter-Glo, read-out: EC50, growth inhibition of 786-O. The gist of the method:
as §2

For test [6], the system named is HCT-116 (colorectal carcinoma) cell line. In words: CellTiter-Glo luminescent cell viability assay, HCT-116. The following applies: Homo sapiens; for viability at 4 µM: HCT-116, compound at 4 μM; for viability at 4 µM / viability at 10 µM: 72 h; for viability at 10 µM: HCT-116, compound at 10 μM; for EC50: HCT-116 cell line, 72 h incubation, CellTiter-Glo, read-out: EC50, growth inhibition of HCT-116. Format: cell-based, human. In a few lines: as §2

Test [7] has as its system HepG2 (hepatocellular carcinoma) cell line. The experiment in a line: CellTiter-Glo luminescent cell viability assay, HepG2. Type of test: cell-based, human. The following applies: Homo sapiens; for viability at 4 µM / viability at 10 µM: HepG2, HepG, 72 h; for viability at 4 µM: compound at 4 μM; for viability at 10 µM: compound at 10 μM; for EC50: HepG2 cell line, 72 h incubation, CellTiter-Glo, read-out: EC50, growth inhibition of HepG2. The gist of the method:
as §1

The term viability denotes a read-out of living cells in per cent, often relative to untreated cells. By EC50 is commonly meant the concentration giving half of the maximal effect.

As to `CN(C)C1CCN(c2c(C#N)c(NCc3ccc(Cl)cc3)nc3ccccc23)C1` (centres unmarked) [Compound 3202CN, 2-(4-chloro-benzylamino)-3-cyano-4-[3-(dimethylamino)pyrrolidin-1-yl]quinoline], the viability at 4 µM in test [1] came out at 96.1%; in test [2] it was 84.5%; in test [3], 98.7%; in test [4] it was 91.1%; in test [5], 92.9%; in test [6] it was 93.7%. In test [7], the viability at 4 µM was 104%. In addition, the viability at 10 µM came to 81.5% in test [1]; 70.5% in test [2]; 82.6% in test [3]; 61.5% in test [4]; 74.7% in test [5]; 62.4% in test [6]. Further, the viability at 10 µM in test [7] is 81%.

On to `Cc1cccc2c(N3CCC(NC(C)(C)C)CC3)c(C#N)c(NCc3ccc(Cl)cc3)nc12` [Compound 414CN, 2-(4-chlorobenzylamino)-3-cyano-4-[4-(tert-butylamino)piperidin-1-yl]-8-methylquinoline], for which the viability at 4 µM was found to be 91% in test [1]; 0.3% in test [2]; 0.5% in test [3]; 79.8% in test [4]; 0.7% in test [5]; 0.3% in test [6]. In addition, the viability at 4 µM in test [7] was 9%. The viability at 10 µM in test [1] was 0.8%; in test [2], 0.4%; in test [3] it was 0.3%; in test [4] it was 0.5%; in test [5], 0.3%; in test [6] it was 0.3%. The viability at 10 µM in test [7] worked out at 0.5%. Besides, the EC50 in test [1] fell in the range of 5 to 10 µM; in test [2] it was 0.5 to 5 µM; in test [3] it was 0.5 to 5 µM; in test [4], 0.5 to 5 µM; in test [5], 0.5 to 5 µM; in test [6] it was 0.5 to 5 µM. Besides, in test [7], the EC50 lay in the range of 0.5 to 5 µM.

In the case of `N#Cc1c(NCc2ccc(Cl)cc2)nc2ccccc2c1N1CCCC(N2CCCC2)C1` (centres unmarked) [Compound 176CN, 2-(4-chlorobenzylamino)-3-cyano-4-[3-(pyrrolidin-1-yl)piperidin-1-yl]quinoline], the viability at 4 µM was 93.2% in test [1]; 114% in test [2]; 95.6% in test [3]; 96.4% in test [4]; 89.8% in test [5]; 84.3% in test [6]. Besides, the viability at 4 µM in test [7] was determined as 93%. The viability at 10 µM in test [1] was found to be 70.6%; in test [2], 65.4%; in test [3], 75.2%; in test [4], 64.7%; in test [5] it was 39.3%; in test [6] it was 42.7%. In addition, the viability at 10 µM in test [7] was found to be 60.2%.

`N#Cc1c(NCc2ccc(Cl)cc2)nc2ccccc2c1N1CCC(NC2CCOCC2)CC1` [Compound 3180CN, 2-(4-chlorobenzylamino)-3-cyano-4-{4-[(tetrahydro-2H-pyran-4-yl)amino]piperidin-1-yl}quinoline]: the viability at 4 µM in test [1] turned out to be 94.9%; in test [2], 88.6%; in test [3] it was 92.3%; in test [4] it was 76.5%; in test [5], 69.7%; in test [6], 59.5%. Moreover, in test [7], the viability at 4 µM was determined as 78.4%. The viability at 10 µM in test [1] came to 58.9%; in test [2], 0.3%; in test [3], 22.7%; in test [4], 0.4%; in test [5], 0.4%; in test [6], 0.2%. Moreover, in test [7], the viability at 10 µM was found to be 0.4%. Moreover, the EC50 in test [1], in test [2], in test [3], in test [4], in test [5] and in test [6] was 5 to 10 µM throughout. Also, the EC50 in test [7] lay in the range of 5 to 10 µM.

With `N#Cc1c(NCc2ccc(Cl)cc2)nc2ccccc2c1N1CCC(NC2CCCC2)CC1` [Compound 3178CN, 2-(4-chlorobenzylamino)-3-cyano-4-[4-(cyclopentylamino)piperidin-1-yl]quinoline], the viability at 4 µM in test [1] came out at 85.8%; in test [2], 0.4%; in test [3], 90.4%; in test [4] it was 58.8%; in test [5], 1.3%; in test [6], 0.3%. The viability at 4 µM in test [7] was 6%. Further, the viability at 10 µM in test [1] was 0.8%; in test [2], 0.5%; in test [3], 0.7%; in test [4], 0.6%; in test [5], 0.5%; in test [6] it was 0.4%. Further, the viability at 10 µM in test [7] is 0.5%. Also, the EC50 fell in the range of 5 to 10 µM in test [1]; 0.5 to 5 µM in test [2]; 0.5 to 5 µM in test [3]; 0.5 to 5 µM in test [4]; 0.5 to 5 µM in test [5]; 0.5 to 5 µM in test [6]. For the same compound, the EC50 in test [7] lay within 0.5 to 5 µM.

As to `CNC1CCN(c2c(C#N)c(NCc3ccc(Cl)cc3)nc3ccccc23)C1` (centres unmarked) [Compound 3192CN, 2-(4-chloro-benzylamino)-3-cyano-4-[3-(methylamino)pyrrolidin-1-y]quinoline], the viability at 4 µM came to 77.1% in test [1]; 104% in test [2]; 0.6% in test [3]; 78% in test [4]; 0.4% in test [5]; 57.3% in test [6]. Moreover, the viability at 4 µM in test [7] turned out to be 59.5%. The viability at 10 µM in test [1] came out at 1.5%; in test [2], 0.4%; in test [3] it was 0.3%; in test [4] it was 0.4%; in test [5], 0.2%; in test [6], 0.2%. For the same compound, the viability at 10 µM in test [7] was determined as 0.4%. The EC50 in test [1] lay within 5 to 10 µM; in test [2] it was 0.5 to 5 µM; in test [3], 5 to 10 µM; in test [4] it was 0.5 to 5 µM; in test [5], 0.5 to 5 µM; in test [6] it was 0.5 to 5 µM. Further, the EC50 in test [7] lay within 0.5 to 5 µM.

Turning to `CN1CCC(NC2CCCN(c3c(C#N)c(NCc4ccc(Cl)cc4)nc4ccccc34)C2)CC1` (centres unmarked) [Compound 3162CN, 2-(4-chlorobenzylamino)-3-cyano-4-{3-[(1-methylpiperidin-4-yl)amino]piperidin-1-yl}quinoline], the viability at 4 µM came out at 51.6% in test [1]; 0.4% in test [2]; 0.5% in test [3]; 0.5% in test [4]; 0.5% in test [5]; 0.3% in test [6]. Further, the viability at 4 µM in test [7] is 0.3%. Besides, the viability at 10 µM came to 0.4% in test [1]; 0.2% in test [2]; 0.3% in test [3]; 0.2% in test [4]; 0.3% in test [5]; 0.2% in test [6]. Besides, the viability at 10 µM in test [7] was determined as 0.2%. Also, the EC50 in test [2], in test [3], in test [4], in test [5], in test [6] and in test [7] was 0.5 to 5 µM throughout.

Regarding `CC(C)(C)NC1CCN(c2c(C#N)c(Nc3cccc(F)c3)nc3ccccc23)CC1` [Compound 3262CN, 2-(3-fluorophenylamino)-3-cyano-4-[4-(tert-butylamino)piperidin-1-yl]quinoline], the viability at 4 µM is 101% in test [1]; 74.9% in test [2]; 98.7% in test [3]; 67.9% in test [4]; 42.6% in test [5]; 2.6% in test [6]. In addition, the viability at 4 µM in test [7] was determined as 70.8%. The viability at 10 µM amounted to 48% in test [1]; 0.6% in test [2]; 0.6% in test [3]; 0.7% in test [4]; 0.7% in test [5]; 0.5% in test [6]. For the same compound, in test [7], the viability at 10 µM came to 0.6%. For the same compound, the EC50 in test [2] lay in the range of 5 to 10 µM; in test [3], 5 to 10 µM; in test [4] it was 5 to 10 µM; in test [5], 0.5 to 5 µM; in test [6], 0.5 to 5 µM; in test [7] it was 5 to 10 µM.
